Laboratory results reported in US20070031356A1, “Beta-carotene modulation of gene expression” (priority 2005, published 2007).
Several values for one entry are separate records, joined by “and”; a condition that tells them apart may be missing. Equal entries are not always repeated. Entries after “also recorded” stand apart in the source; their conditions may differ.

How the values were obtained:
[1] = system: HaCaT human keratinocytes; test: Affymetrix GeneChip microarray, gene regulation by β-carotene and/or UVA; type: cell-based
Protocol: UVA exposure is thought to cause skin aging mainly by singlet oxygen (^1O2)-dependent pathways. Using microarray hybridization the effect of pretreatment with the ^1O2 quencher β-carotene (1.5 μM) on prevention of UVA-induced gene regulation in HaCaT human keratinocytes was explored.
The cell culture experiments were carried out as described (Wertz, 2004). Briefly, a subclone of passage 65 HaCaT keratinocytes, selected for differentiation capacity, was used at passages 16 to 23 after subcloning. 2×10^5 cells were seeded per 60 millimeter dish. Starting the following day, the cells were pretreated for 2 days with β-carotene at 1.5 μM, a typical concentration in human plasma after moderate dietary supplementation (Thurmann, 2002).
(§1) β-carotene-containing medium was prepared as follows. Fresh all-E-β-carotene (DSM Nutritional Products, Kaiseraugst, Switzerland) stock solution in THF (containing 0.025% BHT; Fluka Chemie AG, Switzerland) was diluted 1:2 with ethanol and added to cell culture medium to a final concentration of 1.5 μM β-carotene. The solvent concentration in the medium was 0.5% for all treatments. β-carotene-containing medium was prepared fresh for the daily medium changes.
On day 3 of the experiment, the cells were irradiated with a Hönle sun lamp Sol 500 (270 kJ/m^2; Dr. Hönle, Germany).
Five independent, factorially designed cell irradiation experiments were analyzed by microarray hybridization. For each experiment, one chip was hybridized per treatment condition. GeneChip® analysis was done as described in Siler, 2004, which is incorporated by reference as if recited in full herein. Gene regulation by β-carotene and/or UVA was calculated relative to placebo.
Changes in gene expression were included in further analysis only if the change factor was ≧0.5 or ≦−0.5, and if unpaired t-tests yielded p values ≦0.05. Upregulations by a change factor of ≧0.5 are labeled bold, downregulations by a change factor of ≦−0.5 are labeled bold italics. (Table 1.) To identify the pathways affected by the treatments functional information on the genes was retrieved from public literature databases.

HaCaT cells [2] = test: TaqMan QRT-PCR of key genes; type: cell-based, human
Protocol: Cells were supplemented with β-carotene for 2 days prior to UVA irradiation (270 kJ/m^2) either in normal PBS or D2O-PBS. Gene expression 5 hours after irradiation was determined by quantitative real time polymerase chain reaction. (“QRT-PCR”). Values are geometric mean±standard error of three experiments.
Key gene regulation was confirmed in three independent cell irradiation experiments using TaqMan® QRT-PCR as described (Wertz, 2004). In these experiments, cells were pretreated with 0.5, 1.5, or 3 μM β-carotene, to analyze for dose-dependent β-carotene effects. In addition, cells were irradiated either in D2O-containing PBS or in H2O-containing PBS, to analyze for the ^1O2 inducibility of genes.

caspase-3 = test: Caspase-3 activity (CaspACE Assay System); type: cell-based, human
Protocol: Cells were supplemented with β-carotene for 2 days and prior to UVA irradiation (270 kJ/m^2). Caspase-3 activity was determined at 5 hours after irradiation. Values are mean±standard error of an experiment with four replicates.
Caspase-3 activity 5 hours after UVA irradiation was quantified in five separate experiments using the CaspACE™ Assay System (Promega/Catalys, Switzerland).

[3] = β-carotene concentration in culture medium during incubation; type: physicochemical; settings: during the 24 hours of incubation, irrespective of the presence of cells
Protocol: as §1

HaCaT cells [4] = settings: cited from earlier work
[5] = cited from earlier work
[6] = β-carotene supplementation, rodents (e.g. Mathews-Roth, 1982); cited from earlier work
[7] = UVA 270 kJ/m^2 after 1.5 μM 2 days, vs placebo
[8] = unirradiated, 1.5 μM 2 days, vs placebo
[9] = UVA 270 kJ/m^2, 5 hours after irradiation

SMILES: CC1=C(/C=C/C(C)=C/C=C/C(C)=C/C=C/C=C(C)/C=C/C=C(C)/C=C/C2=C(C)CCCC2(C)C)C(C)(C)CCC1 [β-Carotene, all-E-β-carotene]
- BPAG1; bullous pemphigoid antigen (M69225) change factor [1, 7]: Downregulation
- C-FOS (V01512) change factor [1, 7]: 1.36
- ERF-2 (X78992) change factor [1, 7]: enhanced
- GADD34 (U83981) change factor [1, 7]: enhanced
- GADD153 (S62138) change factor [1, 7]: upregulation; also recorded: enhanced
- IGF-BP 3; insulin-like growth factor-binding protein-3 gene (M35878) change factor [1, 7]: 1.73
- IL6; Interleukin 6; IFNβα2a (X04430) change factor [1, 7]: enhanced
- ILK; integrin-linked kinase (U40282) change factor [1, 7]: Downregulation
- JUND (X56681) change factor [1, 7]: 1.83 and 1.66
- KLF4; EZF (epithelial Zn finger) (U70663) change factor [1, 7]: upregulation
- Lekti (AJ228139) change factor [1, 7]: upregulated
- MMP10 (X07820) change factor [1, 7]: inhibited
- PAR-2; proteinase activated receptor-2 (U34038) change factor [1, 7]: 1.34
- TDAG51; PQ-rich protein; PHLDA1 (Z50194) change factor [1, 7]: enhanced
- TRIP14; ′2-5′ oligoadenylate synthetase (AJ225089) change factor [1, 7]: 0.67
- c-myc (V00568) change factor [1, 7]: 2.45
- connexin 31 (AF099730) change factor [1, 7]: upregulation
- connexin 45 (U03493) change factor [1, 7]: Downregulation
- integrin α6 (X53586) change factor [1, 7]: Downregulation
- serpinB1 (M93056) change factor [1, 7]: upregulated
- number of genes regulated by co-treatment with UVA radiation and β-carotene ([1]; UVA + β-carotene): 1142 genes
- UVA induction of PAR-2 ([1]; UVA-irradiated keratinocytes): further increased
- UVA upregulation of IFNα/Iβ targets ([1]; UVA-irradiated keratinocytes): reduced
- UVA upregulation of VEGF ([1]; UVA-irradiated keratinocytes): reduced
- desmocollins gene regulation ([1]; UVA/β-carotene treatment): Downregulation
- TIMP-1 gene regulation ([1]; all treatments): not influenced
- UVA-regulated genes for which β-carotene enhanced the UVA effect ([1]; of 568 UVA-regulated genes): 180 genes
- UVA-regulated genes for which β-carotene had no effect ([1]; of 568 UVA-regulated genes): 245 genes
- UVA-regulated genes for which β-carotene reduced the UVA-induced effect ([1]; of 568 UVA-regulated genes): 143 genes
- co-treatment-regulated genes not regulated by only UVA or β-carotene alone ([1]; of the 1142 genes): 610 genes
- Bax gene regulation ([1]; unirradiated keratinocytes): upregulated
- JUN-B gene regulation ([1]; unirradiated keratinocytes): downregulated
- VEGF gene regulation ([1]; unirradiated keratinocytes): mildly downregulated
- BMP2a; bone morphogenetic protein 2a (bmp-2a) (M22489) change factor [1, 8]: downregulated
- BPAG1; bullous pemphigoid antigen (M69225) change factor [1, 8]: decreased
- BUB1; mitotic checkpoint kinase (AF053305) change factor [1, 8]: downregulated
- COX-2, cyclooxygenase-2 (U04636) change factor [1, 8]: mildly downregulated
- DNA ligase III (X84740) change factor [1, 8]: downregulated
- EGFR; precursor of epidermal growth factor receptor (X00588) change factor [1, 8]: downregulated
- ENDOGL-2 (AB020735) change factor [1, 8]: upregulated
- FRA-2 (X16706) change factor [1, 8]: downregulated
- GEM (U10550) change factor [1, 8]: downregulated
- HOXD4 (X59373) change factor [1, 8]: downregulated
- ID-2H (D13891) change factor [1, 8]: downregulated
- IGF-BP 3; insulin-like growth factor-binding protein-3 gene (M35878) change factor [1, 8]: 0.22
- IL6; Interleukin 6; IFNβα2a (X04430) change factor [1, 8]: upregulated
- IL18; IGIF (IFNγ inducing factor) (D49950) change factor [1, 8]: downregulated
- IRF-9; p48; ISGF3γ; Interferon-stimulated transcription factor 3γ (M97935) change factor [1, 8]: −0.18
- KRS-2; stress responsive serine/threonine protein kinase (U60207) change factor [1, 8]: downregulated
- MMP10 (X07820) change factor [1, 8]: reduced
- NCF2; p67-phox; neutrophil oxidase factor (M32011) change factor [1, 8]: downregulated
- NOTCH3 (U97669) change factor [1, 8]: downregulated
- NRF2, subunit beta 1 (U13045) change factor [1, 8]: downregulated
- RETSDR1; retinal short-chain dehydrogenase/reductase (AF061741) change factor [1, 8]: induced
- RPA; replication protein A 14kda subunit (rpa) (L07493) change factor [1, 8]: −0.04
- Requiem (AF001433) change factor [1, 8]: upregulated
- SMAD1 (U59423) change factor [1, 8]: −0.27
- TIEG, EGRα (AF050110) change factor [1, 8]: downregulated; also recorded: downregulation
- TLR3; toll-like receptor 3 (U88879) change factor [1, 8]: upregulated
- TRIP14; ′2-5′ oligoadenylate synthetase (AJ225089) change factor [1, 8]: −0.07
- TSSC3/IPL (AF001294) change factor [1, 8]: downregulation
- WNT5A (I20861) change factor [1, 8]: downregulated
- collagen type IV, α-5 (COL4A5) (M58526) change factor [1, 8]: decreased
- integrin α6 (X53586) change factor [1, 8]: decreased
- keratin 15 (J00124) change factor [1, 8]: decreased
- number of genes regulated by β-carotene ([1]; β-carotene alone, change factor ≧0.5 or ≦−0.5, p ≦0.05): 381 genes
- UVA-induced GADD34 transcription (QRT-PCR) (HaCaT cells [2]; [9]): enhancement
- UVA-induced GADD153 transcription (QRT-PCR) (HaCaT cells [2]; [9]): enhancement
- MMP-10 induction by UVA/D2O (HaCaT cells [2]; UVA/D2O): dose-dependently inhibited
- integrinα6 transcription (QRT-PCR) (HaCaT cells [2]; irradiated and unirradiated HaCaT cells, 5 hours after irradiation): confirmed downregulation; also recorded: inhibition
- caspase-3 activity / apoptosis (caspase-3; unirradiated cells, β-carotene alone): not sufficient to induce apoptosis; also recorded: Neither UVA nor β-carotene alone activated caspase-3
- caspase-3 activity (caspase-3; β-carotene 2 days then UVA 270 kJ/m^2, 5 hours after irradiation): dose-dependent induction of caspase-3 activity
- β-carotene concentration in medium dropped to [3]: approximately 50%
- UVA induction of MMP-3 (HaCaT cells [4]; (Wertz, 2004)): downregulated
- basal and 1O2-induced expression of MMP-1 (HaCaT cells [4]; (Wertz, 2004)): reduced
- basal MMP-1 expression (HaCaT cells [4]; unirradiated (Wertz, 2004)): mildly reduces
- basal expression of MMP-10, QRT-PCR in independent experiments (HaCaT cells [4]; unirradiated (Wertz, 2004)): confirmed
- UV-induced immune suppression ([5]; (Fuller, 1992)): prevents
- number of sunburn cells ([5]; β-carotene supplementation, humans (Garmyn, 1995)): did not alter
- sunburn erythema after sun exposure ([5]; β-carotene supplementation, literature studies): alleviates; also recorded: mild reduction; also recorded: mildly reduces
- skin carcinogenesis [6]: reduced
